In patent publication US11767322B2 (BRISTOL-MYERS SQUIBB COMPANY, priority 2020, dated 2023):
Where two headings read alike, the source gives them in different places.

Key:
[1] = target: T1, His-GST-TVMV-hRIPK1(1-324) (Homo sapiens, UniProt Q13546); experiment: biochemical; type: binding; conditions: HTRF probe displacement, 1 h at rt; read-out: RIPK1 IC50
T1 construct: The coding region of human RIPK1(1-324) flanked by NdeI site at 5′ end; made in house; host or cells: Spodoptera frugiperda Sf9 insect cells (baculovirus, Bac-to-Bac)
T1 sequence (Q13546 1-324): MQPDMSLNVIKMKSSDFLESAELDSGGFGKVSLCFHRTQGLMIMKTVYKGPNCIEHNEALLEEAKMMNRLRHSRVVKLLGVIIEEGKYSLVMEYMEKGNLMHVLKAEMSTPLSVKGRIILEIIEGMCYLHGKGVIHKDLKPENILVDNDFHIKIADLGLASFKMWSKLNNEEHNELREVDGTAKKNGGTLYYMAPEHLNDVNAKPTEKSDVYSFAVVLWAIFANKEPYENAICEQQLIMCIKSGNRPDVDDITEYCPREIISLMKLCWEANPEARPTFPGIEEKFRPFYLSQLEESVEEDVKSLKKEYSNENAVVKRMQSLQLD

[2] = tested on: MLKL phosphorylation in HT29-L23 human colorectal adenocarcinoma cells; experiment: MLKL phosphorylation high-content assay; type: cell-based; conditions: necroptosis induced with TNFα, SMAC mimetic and Z-VAD, 6 h, maximal inhibition defined by Nec1s
[3] = target: GST-tagged PIK3Cδ in complex with PIK3R1 (Homo sapiens, UniProt O00329); experiment: PI3Kδ HTRF binding assay; conditions: HTRF probe displacement, 1 h at rt; read-out: PIK3CD IC50
[4] = read-out: pMLKL IC50, HT29-L23 cells
[5] = Homo sapiens, read-out: pMLKL IC50, HT29-L23 cells

Chain of GST-tagged PIK3Cδ in complex with PIK3R1 (O00329 whole entry): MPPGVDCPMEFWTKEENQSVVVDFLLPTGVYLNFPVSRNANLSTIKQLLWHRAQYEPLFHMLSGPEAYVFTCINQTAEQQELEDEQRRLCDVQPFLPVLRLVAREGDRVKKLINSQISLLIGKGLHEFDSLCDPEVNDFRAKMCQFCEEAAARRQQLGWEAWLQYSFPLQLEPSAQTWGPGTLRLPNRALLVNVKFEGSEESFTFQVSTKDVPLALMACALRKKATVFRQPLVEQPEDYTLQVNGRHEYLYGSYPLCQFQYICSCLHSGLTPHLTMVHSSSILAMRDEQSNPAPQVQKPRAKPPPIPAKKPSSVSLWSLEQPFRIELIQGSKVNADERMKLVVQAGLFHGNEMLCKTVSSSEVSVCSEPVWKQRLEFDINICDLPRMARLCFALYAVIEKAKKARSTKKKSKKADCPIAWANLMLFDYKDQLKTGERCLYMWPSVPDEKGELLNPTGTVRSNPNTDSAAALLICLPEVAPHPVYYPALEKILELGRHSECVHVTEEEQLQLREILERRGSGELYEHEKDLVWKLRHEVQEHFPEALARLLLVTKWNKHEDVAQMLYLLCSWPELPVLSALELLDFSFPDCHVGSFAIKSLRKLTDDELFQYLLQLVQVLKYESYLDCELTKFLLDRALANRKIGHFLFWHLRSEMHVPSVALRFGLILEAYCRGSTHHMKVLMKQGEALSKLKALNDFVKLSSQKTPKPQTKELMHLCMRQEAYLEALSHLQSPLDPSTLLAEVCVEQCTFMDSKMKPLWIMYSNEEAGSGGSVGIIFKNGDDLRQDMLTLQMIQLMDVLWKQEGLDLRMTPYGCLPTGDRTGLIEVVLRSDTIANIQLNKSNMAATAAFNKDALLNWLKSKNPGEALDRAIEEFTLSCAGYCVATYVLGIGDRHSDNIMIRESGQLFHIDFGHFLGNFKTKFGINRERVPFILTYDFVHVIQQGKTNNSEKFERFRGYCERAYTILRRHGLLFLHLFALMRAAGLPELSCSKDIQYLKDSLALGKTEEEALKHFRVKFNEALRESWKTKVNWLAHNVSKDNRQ
Chain of GST-tagged PIK3Cδ in complex with PIK3R1 (P27986 whole entry partner): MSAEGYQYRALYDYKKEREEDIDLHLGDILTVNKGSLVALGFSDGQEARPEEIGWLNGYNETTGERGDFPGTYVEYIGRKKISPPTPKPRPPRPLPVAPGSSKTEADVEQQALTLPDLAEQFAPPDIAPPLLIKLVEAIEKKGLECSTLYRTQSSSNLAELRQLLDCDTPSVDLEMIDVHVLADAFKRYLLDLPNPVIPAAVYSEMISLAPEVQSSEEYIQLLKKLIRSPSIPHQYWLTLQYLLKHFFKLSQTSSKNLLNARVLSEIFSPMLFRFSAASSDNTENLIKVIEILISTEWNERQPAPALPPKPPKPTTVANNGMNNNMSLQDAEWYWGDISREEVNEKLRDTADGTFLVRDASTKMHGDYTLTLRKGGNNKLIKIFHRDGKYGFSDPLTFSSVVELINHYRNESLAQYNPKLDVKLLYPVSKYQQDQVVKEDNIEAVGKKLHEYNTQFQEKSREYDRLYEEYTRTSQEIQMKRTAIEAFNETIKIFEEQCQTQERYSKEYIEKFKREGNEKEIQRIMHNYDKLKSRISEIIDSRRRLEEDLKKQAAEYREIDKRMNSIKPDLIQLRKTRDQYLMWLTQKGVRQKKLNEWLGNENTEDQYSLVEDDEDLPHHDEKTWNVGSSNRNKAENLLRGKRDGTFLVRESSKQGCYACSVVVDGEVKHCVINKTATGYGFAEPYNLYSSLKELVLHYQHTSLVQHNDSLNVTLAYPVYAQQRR

Row | SMILES | IC50 [1] | IC50 [2, 4] | IC50 [3] | IC50 [2, 5]
1 | Cc1ccc(-c2ccn3nc(N)nc3c2)c(F)c1C(=O)NCCC(c1ccccc1)C(F)(F)F (single isomer, unassigned) [Example 12, 3-(2-amino-[1,2,4]triazolo[1,5-a]pyridin-7-yl)-2-fluoro-6-methyl-N-(4,4,4-trifluoro-3-phenylbutyl)benzamide] | 3 nM | 9.2 nM | > 15000 nM | –
2 | Cc1ccc(-c2ccn3nc(N)nc3c2)c(F)c1C(=O)NCCC(c1ccccc1)C(F)(F)F (single isomer, unassigned) [Example 13, 3-(2-amino-[1,2,4]triazolo[1,5-a]pyridin-7-yl)-2-fluoro-6-methyl-N-(4,4,4-trifluoro-3-phenylbutyl)benzamide] | 0.6 nM | 27 nM | > 15000 nM | –
3 | Cc1ccc(-c2ccn3nc(N)nc3c2)c(F)c1C(=O)NC(CF)CC(O)c1ccc(F)cc1 (single isomer, unassigned) [Example 25, 3-(2-amino-[1,2,4]triazolo[1,5-a]pyridin-7-yl)-2-fluoro-N-(1-fluoro-4-(4-fluorophenyl)-4-hydroxybutan-2-yl)-6-methylbenzamide] | 3.6 nM | 4.1 nM | > 15000 nM | –
4 | Cc1ccc(-c2ccn3nc(N)nc3c2)c(F)c1C(=O)NC(CF)CC(O)c1ccc(F)cc1 (single isomer, unassigned) [Example 26, 3-(2-amino-[1,2,4]triazolo[1,5-a]pyridin-7-yl)-2-fluoro-N-(1-fluoro-4-(4-fluorophenyl)-4-hydroxybutan-2-yl)-6-methylbenzamide] | 233 nM | 696 nM | > 15000 nM | –
5 | Cc1ccc(-c2ccn3nc(N)nc3c2)c(F)c1C(=O)NC(CF)CC(O)c1ccc(F)cc1 (single isomer, unassigned) [Example 27, 3-(2-amino-[1,2,4]triazolo[1,5-a]pyridin-7-yl)-2-fluoro-N-(1-fluoro-4-(4-fluorophenyl)-4-hydroxybutan-2-yl)-6-methylbenzamide] | 60 nM | 198 nM | > 15000 nM | –
6 | Cc1ccc(-c2ccn3nc(N)nc3c2)c(F)c1C(=O)NC(CF)CC(O)c1ccc(F)cc1 (single isomer, unassigned) [Example 28, 3-(2-amino-[1,2,4]triazolo[1,5-a]pyridin-7-yl)-2-fluoro-N-(1-fluoro-4-(4-fluorophenyl)-4-hydroxybutan-2-yl)-6-methylbenzamide] | 5.1 nM | 4.9 nM | 8800 nM | –
7 | Cc1ccc(-c2ccn3nc(N)nc3c2)c(F)c1C(=O)NCC(F)(F)[C@H](O)c1ccc(F)cc1 (single isomer, unassigned) [Example 31] | 2.4 nM | – | > 15000 nM | 0.8 nM
8 | Cc1ccc(-c2ccn3nc(N)nc3c2)c(F)c1C(=O)NCCC(O)c1ccc(Cl)c(Cl)c1 (single isomer, unassigned) [Example 33, 3-(2-amino-[1,2,4]triazolo[1,5-a]pyridin-7-yl)-N-(3-(3,4-dichlorophenyl)-3-hydroxypropyl)-2-fluoro-6-methylbenzamide] | 1 nM | – | > 15000 nM | 0.7 nM
9 | Cc1ccc(-c2ccn3nc(N)nc3c2)c(F)c1C(=O)NCCC(O)c1ccc(Cl)c(Cl)c1 (single isomer, unassigned) [Example 34, 3-(2-amino-[1,2,4]triazolo[1,5-a]pyridin-7-yl)-N-(3-(3,4-dichlorophenyl)-3-hydroxypropyl)-2-fluoro-6-methylbenzamide] | 0.8 nM | 1 nM | > 15000 nM | –
10 | Cc1ccc(-c2ccn3nc(N)nc3c2)c(F)c1C(=O)NC(C)CC(O)c1ccc(F)cc1 (single isomer, unassigned) [Example 36, 3-(2-amino-[1,2,4]triazolo[1,5-a]pyridin-7-yl)-2-fluoro-N-(4-(4-fluorophenyl)-4-hydroxybutan-2-yl)-6-methylbenzamide] | 4.5 nM | 2.7 nM | > 15000 nM | –
